Legend:
CFTR [1] = target: T1, CFTR (Mus musculus, UniProt P26361); assay: LL-37 secretion by BMC9 cells with CFTR inhibition; type: cell-based; details: 10 μg/ml, 48 hours; Mean±SEM, n=3
T1 construct: BMC9 cells have 0.36±0.14% Cftr expression; endogenous in cells; host or cells: BMC9 immortal mouse MSC clone
Procedure: (§1) To determine if CF MSCs express CFTR to validate the I-172 studies, we took advantage of an immortal mouse derived MSC clone BMC9, especially since we have a highly reproducible mouse Cftr gene expression assay in our CF animal CORE center. These cells are abundant and have s a MSC phenotype when grown at 37° C. […] The sensitivity and specificity of our Cftr expression assay is 40±2 Ct. If we had used a lower expressing tissue, the % of Cftr levels would be higher. BMC9 cells cultured with I-172 (10 μg/ml, for 48 hours) secreted 37±13% (Mean±SEM, n=3) less LL-37 than BMC9 cells not cultured with I-172 (P≦0.05). […] Our future studies are aimed at studying the differences between and Cftr deficient MSCs and control MSCs.

CFTR [2] = target: T2, CFTR (Homo sapiens, UniProt P13569); assay: LL-37 secretion by cultured hMSCs with or without CFTR inhibition; type: cell-based
T2 construct: endogenous in cells; host or cells: human mesenchymal stem cells (hMSCs) from bone marrow of healthy volunteers
Procedure: FIG. 11 illustrates that hMSCs and BMM cells secrete LL-37. hMSCs utilized in the animal models were cultured in vitro with and without the addition of 0.5 ug/ml LPS (n=5 preparations) with or without inhibition of CFTR with I-172 (10 ug/ml for 48 hours) and incubated for 24 hours. […] We used the student t-test for these analyses.
as §1

T2 sequence (P13569 whole entry): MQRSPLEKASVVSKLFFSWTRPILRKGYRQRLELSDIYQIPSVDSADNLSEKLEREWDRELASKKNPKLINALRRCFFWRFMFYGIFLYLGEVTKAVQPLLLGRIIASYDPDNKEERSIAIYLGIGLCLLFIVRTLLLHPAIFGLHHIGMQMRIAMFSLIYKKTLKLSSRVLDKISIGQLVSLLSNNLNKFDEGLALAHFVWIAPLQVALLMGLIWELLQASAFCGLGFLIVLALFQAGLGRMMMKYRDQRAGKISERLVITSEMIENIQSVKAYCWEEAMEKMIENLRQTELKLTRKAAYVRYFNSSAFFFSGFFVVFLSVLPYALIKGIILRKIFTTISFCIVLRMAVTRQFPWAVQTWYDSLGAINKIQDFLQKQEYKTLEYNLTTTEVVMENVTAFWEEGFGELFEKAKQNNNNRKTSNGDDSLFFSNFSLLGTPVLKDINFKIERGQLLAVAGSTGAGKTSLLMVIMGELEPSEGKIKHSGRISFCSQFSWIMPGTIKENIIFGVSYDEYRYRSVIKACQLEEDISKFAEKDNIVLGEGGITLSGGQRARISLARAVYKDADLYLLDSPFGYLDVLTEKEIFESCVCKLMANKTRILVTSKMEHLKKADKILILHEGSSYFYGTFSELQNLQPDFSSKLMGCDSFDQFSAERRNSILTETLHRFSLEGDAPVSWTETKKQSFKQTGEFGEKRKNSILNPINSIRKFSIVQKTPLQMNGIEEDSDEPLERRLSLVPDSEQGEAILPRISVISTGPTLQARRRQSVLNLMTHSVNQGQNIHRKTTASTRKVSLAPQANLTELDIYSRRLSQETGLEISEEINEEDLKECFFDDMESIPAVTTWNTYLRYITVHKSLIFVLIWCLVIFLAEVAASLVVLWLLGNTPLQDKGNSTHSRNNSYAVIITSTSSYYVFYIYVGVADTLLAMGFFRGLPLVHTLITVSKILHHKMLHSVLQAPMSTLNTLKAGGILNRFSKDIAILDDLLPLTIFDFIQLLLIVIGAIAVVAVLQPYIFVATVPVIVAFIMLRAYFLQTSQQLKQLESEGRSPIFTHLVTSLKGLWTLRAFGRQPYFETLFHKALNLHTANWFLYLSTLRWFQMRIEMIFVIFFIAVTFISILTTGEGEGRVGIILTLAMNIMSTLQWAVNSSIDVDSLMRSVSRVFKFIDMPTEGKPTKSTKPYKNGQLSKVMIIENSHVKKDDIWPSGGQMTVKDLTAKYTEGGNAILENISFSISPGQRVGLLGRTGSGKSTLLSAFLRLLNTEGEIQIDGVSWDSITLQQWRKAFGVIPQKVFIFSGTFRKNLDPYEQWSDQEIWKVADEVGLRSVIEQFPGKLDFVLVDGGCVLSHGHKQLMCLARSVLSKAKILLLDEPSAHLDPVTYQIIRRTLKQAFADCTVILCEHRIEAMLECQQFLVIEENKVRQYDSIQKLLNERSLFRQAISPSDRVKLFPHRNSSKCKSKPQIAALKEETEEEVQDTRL
T1 sequence (P26361 whole entry): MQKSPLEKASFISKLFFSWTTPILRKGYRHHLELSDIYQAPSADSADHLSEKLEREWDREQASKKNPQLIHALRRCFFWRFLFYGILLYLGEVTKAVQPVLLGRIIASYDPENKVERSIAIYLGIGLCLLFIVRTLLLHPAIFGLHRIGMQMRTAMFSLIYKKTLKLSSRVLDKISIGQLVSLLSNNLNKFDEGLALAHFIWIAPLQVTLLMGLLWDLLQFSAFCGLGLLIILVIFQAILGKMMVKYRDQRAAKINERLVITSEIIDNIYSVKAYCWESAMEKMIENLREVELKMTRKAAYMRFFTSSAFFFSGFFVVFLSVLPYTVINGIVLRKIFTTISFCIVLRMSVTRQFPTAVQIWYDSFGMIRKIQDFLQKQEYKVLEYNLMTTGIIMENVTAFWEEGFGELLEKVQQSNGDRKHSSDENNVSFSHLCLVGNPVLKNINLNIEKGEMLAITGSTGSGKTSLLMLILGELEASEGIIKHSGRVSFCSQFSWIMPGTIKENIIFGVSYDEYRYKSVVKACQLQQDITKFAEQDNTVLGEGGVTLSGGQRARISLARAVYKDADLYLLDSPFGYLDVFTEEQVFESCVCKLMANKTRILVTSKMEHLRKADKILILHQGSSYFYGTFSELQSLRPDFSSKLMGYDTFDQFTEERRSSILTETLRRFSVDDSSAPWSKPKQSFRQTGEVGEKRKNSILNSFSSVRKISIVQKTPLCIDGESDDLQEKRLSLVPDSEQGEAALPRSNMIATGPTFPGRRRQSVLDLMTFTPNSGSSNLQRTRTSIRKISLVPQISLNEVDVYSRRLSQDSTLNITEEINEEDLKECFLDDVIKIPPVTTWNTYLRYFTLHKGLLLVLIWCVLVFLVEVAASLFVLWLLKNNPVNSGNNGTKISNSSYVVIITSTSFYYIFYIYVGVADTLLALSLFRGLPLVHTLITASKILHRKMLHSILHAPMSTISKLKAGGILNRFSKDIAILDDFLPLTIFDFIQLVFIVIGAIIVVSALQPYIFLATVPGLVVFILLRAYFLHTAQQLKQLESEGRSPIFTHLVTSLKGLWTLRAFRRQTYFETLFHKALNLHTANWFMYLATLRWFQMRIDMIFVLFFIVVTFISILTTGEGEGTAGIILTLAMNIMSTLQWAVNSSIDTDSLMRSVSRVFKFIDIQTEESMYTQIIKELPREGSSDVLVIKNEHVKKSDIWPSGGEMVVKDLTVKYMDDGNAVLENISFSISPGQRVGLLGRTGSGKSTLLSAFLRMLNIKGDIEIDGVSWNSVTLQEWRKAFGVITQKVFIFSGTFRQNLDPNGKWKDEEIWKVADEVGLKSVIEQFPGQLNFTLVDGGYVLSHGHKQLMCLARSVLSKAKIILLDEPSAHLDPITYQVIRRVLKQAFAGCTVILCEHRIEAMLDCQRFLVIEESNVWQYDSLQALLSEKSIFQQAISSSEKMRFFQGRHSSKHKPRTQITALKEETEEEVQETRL

less LL-37 secreted than BMC9 cells not cultured with I-172 (CFTR [1]): 37±13%
amount of LL-37 after LPS stimulation (CFTR [2]; 10 ug/ml for 48 hours then LPS, relative to LPS control): even further suppressed
ability of hMSCs to secrete LL-37 (CFTR [2]; 10 ug/ml for 48 hours, relative to un-stimulated control): significantly reduced
Structure (SMILES): O=C(O)c1ccc(/C=C2\SC(=S)N(c3cccc(C(F)(F)F)c3)C2=O)cc1 [I-172]
